We go through 3 compounds from US11930815B1, “3,3′-(piperazine-1,4-diyl)bis(1-(naphthalen-2-yloxy)propan-2-ol) as insecticidal agent” (priority 2023, dated 2024).

Values after ≈ are worked out from the molar mass of the structure shown. Like-named read-outs stand apart in the source and are kept apart here.

What is called LC50 is the concentration that kills 50% of the test population.

For data set [1], the system named is 2nd instars of larvae of Spodoptera littoralis. Nature of the data set: Insecticidal bioassay screening, castor leaf dip, 2nd instar larvae. In kind it is in vivo. The following applies: for Toxic ratio: 2nd larvae, fenoxycarb's LC50/the compound's LC50 × 100. The procedure:
(§1) Five concentrations (200, 100, 50, 25, 12.5 ppm) were designed for this synthetic compound and the reference fenoxycarb compound as the dynamic ingredients based on ppm via diluting the commercial formulation.
(§2) In this experiment, castor leaves are immersed in each of the previously prepared concentrations of the components for 10 seconds and then left to dry for 60 minutes. Larvae of the second and fourth instars of each checked strain are prepared with treated leaves in gauze-covered glass containers for 72 hrs. An untreated control is made in which leaves are dipped in triton x-100 and distilled water only. Then the preserved leaves were removed & fresh, untreated leaves were provided for 72 hours. Three replicates (10 larvae each) were checked for each concentration. Daily inspection was carried out for all treatments and mortality percentages were recorded 3 days (72 hours) after treatment. The average mortality percentage was corrected employing Abbott's formula. The corrected mortality rate for each of the previously synthesized compounds is statistically calculated according to Finney (1970). Through this rate, the corresponding concentration test lines (LDP lines) are assessed. Fifty and ninety percent mortality are determined, and the regression values for the checked products were previously evaluated.

Data set [2] concerns 4th instars of larvae of Spodoptera littoralis. Description: Insecticidal bioassay screening, castor leaf dip, 4th instar larvae. In kind it is in vivo. To be noted: for Toxic ratio: 4th larvae, fenoxycarb's LC50/the compound's LC50 × 100. As to the method:
as §1, §2

The mark [3] stands for this setting: Spodoptera littoralis, foliar, 72 h.

As to `OC(COc1ccc2ccccc2c1)CN1CCN(CC(O)COc2ccc3ccccc3c2)CC1` (centres unmarked) [3,3′-(piperazine-1,4-diyl)bis(1-(naphthalen-2-yloxy)propan-2-ol)], the LC50 result in data set [1] (2nd instars of larvae of Spodoptera littoralis, after 72 hours of treatment) was “about 42.05 ppm”; in data set [2] (in vivo), “about 86.98 ppm”.
In the case of `OC(COc1ccc2ccccc2c1)CN1CCN(CC(O)COc2ccc3ccccc3c2)CC1` (centres unmarked) [Compound 9, 3,3′-(piperazine-1,4-diyl)bis(1-(naphthalen-2-yloxy)propan-2-ol)], the values for the Toxic ratio in data set [1] (72 h) and in data set [2] (72 h) were 6.51 and 49.7, respectively. The LC50 is 42 µg/mL (≈ 86.4 µM) in data set [1] (Spodoptera littoralis, foliar, 2nd larvae of S. littoralis, after 72 h of treatment, treated castor leaves, read-out: LC50); 42 µg/mL (≈ 86.4 µM) in data set [1] (foliar, against Spodoptera littoralis under laboratory conditions, instar not stated, read-out: LC50); 87 µg/mL (≈ 179 µM) in data set [2] (setting [3]). Besides, the “activity against Spodoptera littoralis” value in data set [1] (verbal summary of Table 1, compared with fenoxycarb) is given as “active”.
Regarding `CCOC(=O)NCCOc1ccc(Oc2ccccc2)cc1` [Fenoxycarb, reference compound], the Toxic ratio in data set [1] (72 h) and in data set [2] (72 h) was 100 in each case. Further, the LC50 in data set [1] (setting [3]) came out at 2.73 µg/mL (≈ 9.06 µM).
